Patent publication EP2951180B1, “2,6,7,8 SUBSTITUTED PURINES AS HDM2 INHIBITORS” (Merck Sharp & Dohme Corp., priority 2013, dated 2014)

The compounds below were run against T1, HDM2 (Homo sapiens, UniProt Q00987) (assay: FRET assay (HDM2 inhibition; method not described in this part)). Details: Table 1.
T1 construct: Thioredoxin (N); made in house; host or cells: E. coli strain BL21(DE3)Rosetta
Format: binding

T1 sequence (Q00987 17-125): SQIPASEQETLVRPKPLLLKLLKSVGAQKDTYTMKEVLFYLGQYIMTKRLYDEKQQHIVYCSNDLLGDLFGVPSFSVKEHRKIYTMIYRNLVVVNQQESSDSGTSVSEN

SMILES	IC50
Cc1cnc(-c2nc3nc(C(=O)O)nc(N[C@H](C)C4CCC4)c3n2Cc2ccc(C(F)(F)F)c(F)c2)cc1C(C)C [Example 1.92, 6-{[(1R)-1-cyclobutylethyl]amino}-7-[3-fluoro-4-(trifluoromethyl)benzyl]-8-[5-methyl-4-(1-methylethyl)pyridin-2-yl]-7H-purine-2-carboxylic acid]	15.9 nM
COCOc1ccc(C(C)C)cc1-c1nc2nc(C(=O)O)nc(N[C@H](C)C3CCC3)c2n1Cc1ccc(C(F)(F)F)cc1 [Example 1.30, 6-{[(1R)-1-cyclobutylethyl]amino}-8-[2-(methoxymethoxy)-5-(1-methylethyl)phenyl]-7-[4-(trifluoromethyl)benzyl]-7H-purine-2-carboxylic acid]	54.4 nM
CC(C)c1ccnc(-c2nc3nc(C(=O)O)nc(N[C@H](C)C4CCC4)c3n2Cc2ccc(Cl)c(F)c2)c1 [Example 1.6, 7-(4-chloro-3-fluorobenzyl)-6-{[(1R)-1-cyclobutylethyl]amino}-8-[4-(propan-2-yl)pyridin-2-yl]-7H-purine-2-carboxylic acid]	2.79 nM
C[C@@H](Nc1nc(C(=O)O)nc2nc(-c3cc(-c4ccccc4)ccn3)n(Cc3ccc(C(F)(F)F)cc3)c12)C1CCC1 [Example 1.26, 6-{[(1R)-1-cyclobutylethyl]amino}-8-(4-phenylpyridin-2-yl)-7-[4-(trifluoromethyl)benzyl] - 7H-purine-2-carboxylic acid]	12.1 nM
CC(C)Cc1ccnc(-c2nc3nc(C(=O)O)nc(N[C@H](C)C4CCC4)c3n2Cc2ccc(C(F)(F)F)cc2)c1 [Example 1.85, 6-{[(1R)-1-cyclobutylethyl]amino}-8-[4-(2-methylpropyl)pyridin-2-yl]-7-[4-(trifluoromethyl)benzyl]-7H-purine-2-carboxylic acid]	9.69 nM
C[C@@H](Nc1nc(C(=O)O)nc2nc(-c3cccc(-c4ccccc4)n3)n(Cc3ccc(C(F)(F)F)cc3)c12)C1CCC1 [Example 1.63, 6-{[(1R)-1-cyclobutylethyl]amino}-8-(6-phenylpyridin-2-yl)-7-[4-(trifluoromethyl)benzyl] - 7H-purine-2-carboxylic acid]	324 nM
C[C@@H](Nc1nc(C(=O)O)nc2nc(-c3cc(C4CC4)ccn3)n(Cc3ccc(C(F)(F)F)cc3)c12)C1CCC1 [Example 1.51, 6-{[(1R)-1-cyclobutylethyl]amino}-8-(4-cyclopropylpyridin-2-yl)-7-[4-(trifluoromethyl)benzyl]-7H-purine-2-carboxylic acid]	8.39 nM
CC(C)c1cc(-c2nc3nc(C(=O)O)nc(N[C@H](C)C4CCC4)c3n2Cc2ccc(C(F)(F)F)cc2)ncc1F [Example 1.10, (R)-6-((1-cyclobutylethyl)amino)-8-(5-fluoro-4-isopropylpyridin-2-yl)-7-(4-(trifluoromethyl)benzyl)-7H-purine-2-carboxylic acid]	3.96 nM
CCCc1ccnc(-c2nc3nc(C(=O)O)nc(N[C@H](C)C4CCC4)c3n2Cc2ccc(C(F)(F)F)c(F)c2)c1 [Example 1.80, 6-{[(1R)-1-cyclobutylethyl]amino}-7-[3-fluoro-4-(trifluoromethyl)benzyl]-8-(4-propylpyridin-2-yl)-7H-purine-2-carboxylic acid]	7.45 nM
CC(O)c1ccnc(-c2nc3nc(C(=O)O)nc(N[C@H](C)C4CCC4)c3n2Cc2ccc(C(F)(F)F)cc2)c1 (stereo partly drawn) [Example 1.28, 6-{[(1R)-1-cyclobutylethyl]amino}-8-[4-(1-hydroxyethyl)pyridin-2-yl]-7-[4-(trifluoromethyl)benzyl]-7H-purine-2-carboxylic acid]	12.4 nM
Cc1c(-c2nc3nc(C(=O)O)nc(N[C@H](C)C4CCC4)c3n2Cc2ccc(C(F)(F)F)cc2)cnn1C [Example 1.95, 6-{[(1R)-1-cyclobutylethyl]amino}-8-(1,5-dimethyl-1H-pyrazol-4-yl)-7-[4-(trifluoromethyl)benzyl]-7H-purine-2-carboxylic acid]	138 nM
C[C@@H](Nc1nc(C(=O)O)nc2nc(-c3ccc(N(C)C)cc3)n(Cc3ccc(C(F)(F)F)cc3)c12)C1CCC1 [Example 1.113, 6-{[(1R)-1-cyclobutylethyl]amino}-8-[4-(dimethylamino)phenyl]-7-[4-(trifluoromethyl)benzyl]-7H-purine-2-carboxylic acid]	716 nM
CCc1ccnc(-c2nc3nc(C(=O)O)nc(N[C@H](C)C4CCC4)c3n2Cc2ccc(C(F)(F)F)cc2)c1 [Example 1.69, 6-{[(1R)-1-cyclobutylethyl]amino}-8-(4-ethylpyridin-2-yl)-7-[4-(trifluoromethyl)benzyl]-7H-purine-2-carboxylic acid]	42.7 nM
C[C@@H](Nc1nc(C(=O)O)nc2nc(-c3ccccn3)n(Cc3ccc(C(F)(F)F)cc3)c12)C1CCC1 [Example 1.16, 6-{[(1R)-1-cyclobutylethyl]amino}-8-pyridin-2-yl-7-[4-(trifluoromethyl)benzyl]-7H-purine-2-carboxylic acid]	25.3 nM
Cc1ccc(Cl)cc1-c1nc2nc(C(=O)O)nc(N[C@H](C)C3CCC3)c2n1Cc1ccc(C(F)(F)F)cc1 [Example 1.132, 8-(5-chloro-2-methylphenyl)-6-{[(1R)-1-cyclobutylethyl]amino}-7-[4-(trifluoromethyl)benzyl]-7H-purine-2-carboxylic acid]	524 nM
Cc1cc(-c2nc3nc(C(=O)O)nc(N[C@H](C)C4CC4)c3n2Cc2ccc(C(F)(F)F)cc2)ccn1 [Example 1.118, 6-{[(1R)-1-cyclopropylethyl]amino} -8-(2-methylpyridin-4-yl)-7-[4-(trifluoromethyl)benzyl]-7H-purine-2-carboxylic acid]	1370 nM
C[C@@H](Nc1nc(C(=O)O)nc2nc(-c3cc(C4CC4)ccn3)n(Cc3ccc(C(F)(F)F)c(F)c3)c12)C1CCC1 [Example 1.77, 6-{[(1R)-1-cyclobutylethyl]amino}-8-(4-cyclopropylpyridin-2-yl)-7-[3-fluoro-4-(trifluoromethyl)benzyl]-7H-purine-2-carboxylic acid]	20 nM
C[C@@H](Nc1nc(C(=O)O)nc2nc(-c3cc(Cc4ccccc4)ccn3)n(Cc3ccc(C(F)(F)F)cc3)c12)C1CCC1 [Example 1.9, (R)-8-(4-benzylpyridin-2-yl)-6-((1-cyclobutylethyl)amino)-7-(4-(trifluoromethyl)benzyl)-7H-purine-2-carboxylic acid]	37.4 nM
CC(C)Oc1cccc(-c2nc3nc(C(=O)O)nc(N[C@H](C)C4CC4)c3n2Cc2ccc(C(F)(F)F)cc2)c1 [Example 1.98, 6-{[(1R)-1-cyclopropylethyl]amino} -8-[3-(1-methylethoxy)phenyl]-7-[4-(trifluoromethyl)benzyl]-7H-purine-2-carboxylic acid]	316 nM

Same assay, conditions: Table 2

SMILES	IC50
C[C@@H](Nc1nc(C(=O)O)nc2nc(-c3cccc(OC(F)F)c3)n(Cc3ccc(C(F)(F)F)cc3)c12)C1CCC1 [Example 2.67, 6-{[(1R)-1-cyclobutylethyl]amino}-8-[3-(difluoromethoxy)phenyl]-7-[4-(trifluoromethyl)benzyl]-7H-purine-2-carboxylic acid]	41.7 nM
COc1cc(OC)cc(-c2nc3nc(C(=O)O)nc(N[C@H](C)C4CC4)c3n2Cc2ccc(C(F)(F)F)cc2)c1 [Example 2.28, 6-{[(1R)-1-cyclopropylethyl]amino}-8-(3,5-dimethoxyphenyl)-7-[4-(trifluoromethyl)benzyl]-7H-purine-2-carboxylic acid]	455 nM
C[C@@H](Nc1nc(C(=O)O)nc2nc(-c3cccnc3)n(Cc3ccc(C(F)(F)F)cc3)c12)C1CC1 [Example 2.44, 6-{[(1R)-1-cyclopropylethyl]amino}-8-pyridin-3-yl-7-[4-(trifluoromethyl)benzyl]-7H-purine-2-carboxylic acid]	640 nM
C[C@@H](Nc1nc(C(=O)O)nc2nc(-c3cccc(Cl)c3)n(Cc3ccc(C(F)(F)F)cc3)c12)C1CC1 [Example 2.22, 8-(3-chlorophenyl)-6-{[(1R)-1-cyclopropylethyl]amino}-7-[4-(trifluoromethyl)benzyl]-7H-purine-2-carboxylic acid]	124 nM
C[C@@H](Nc1nc(C(=O)O)nc2nc(-c3ccc(Cl)cc3)n(Cc3ccc(Cl)cc3)c12)C1CC1 [Example 2.9, 7-(4-chlorobenzyl)-8-(4-chlorophenyl)-6-{[(1R)-1-cyclopropylethyl]amino}-7H-purine-2-carboxylic acid]	43.8 nM
C[C@@H](Nc1nc(C(=O)O)nc2nc(-c3cccc(N(C)C)c3)n(Cc3ccc(C(F)(F)F)cc3)c12)C1CCC1 [Example 2.37, 6-{[(1R)-1-cyclobutylethyl]amino}-8-[3-(dimethylamino)phenyl]-7-[4-(trifluoromethyl)benzyl]-7H-purine-2-carboxylic acid]	6.6 nM

Same assay, conditions: Table 3

SMILES	IC50
CC(C)c1csc(-c2nc3nc(C(=O)O)nc(N[C@H](C)C4CCC4)c3n2Cc2ccc(C(F)(F)F)cc2)n1 [Example 3.6, 6-{[(1R)-1-cyclobutylethyl]amino}-8-[4-(1-methylethyl)-1,3-thiazol-2-yl]-7-[4-(trifluoromethyl)benzyl] -7H-purine-2-carboxylic acid]	312 nM
CC(C)c1ccnc(-c2nc3nc(C(=O)O)nc(N[C@H](C)C4CCC4)c3n2Cc2ccc(C(F)(F)F)cc2)n1 [Example 3.2, (R)-6-((1-cyclobutylethyl)amino)-8-(4-isopropylpyrimidin-2-yl)-7-(4-(trifluoromethyl)benzyl)-7H-purine-2-carboxylic acid]	22 nM

Same assay, conditions: Table 4

SMILES	IC50
COCCCOc1ccc(C)cc1-c1nc2nc(C(=O)O)nc(N[C@H](C)C3CCC3)c2n1Cc1ccc(Cl)cc1 [Example 4.4, (R)-7-(4-chlorobenzyl)-6-((1-cyclobutylethyl)amino)-8-(2-(3-methoxypropoxy)-5-methylphenyl)-7H-purine-2-carboxylic acid]	48.7 nM

Same assay, conditions: Table 5

SMILES	IC50
Cc1ccc(Cn2c(-c3cccc(C)c3)nc3nc(C(=O)O)nc(N[C@H](C)C4CC4)c32)cc1 [Example 5.21, 6-{[(1R)-1-cyclopropylethyl]amino}-7-(4-methylbenzyl)-8-(3-methylphenyl)-7H-purine-2-carboxylic acid]	1200 nM
Cc1cccc(-c2nc3nc(C(=O)O)nc(NCC4CC4)c3n2C(C)c2ccc(Cl)cc2)c1 (stereo not drawn) [Example 5.2, 7-(1-(4-chlorophenyl)ethyl)-6-((cyclopropylmethyl)amino)-8-(m-tolyl)-7H-purine-2-carboxylic acid]	984 nM
